# Results: US12036225B2, “Use of ibezapolstat to promote microbiome health” (Acurx Pharmaceuticals, Inc., priority 2021, dated 2024)
# Tests used:
# [1] = Phase 2a trial: plasma and fecal concentrations (PK); format: in vivo, human; settings: CDI patients
# Protocol: Plasma levels were drawn at 2 and 4 hours after the first daily ibezapolstat administration on days 1, 5, and 10. Fecal samples were collected at baseline and daily during days 1-10 of ibezapolstat receipt. Plasma and fecal concentrations were assayed by AltaSciences (Laval, Quebec, Canada) and PK analyses were performed by Learn and Confirm Inc. (Montreal, Quebec, Canada).
# C. difficile infection [2] = experiment: Phase 2a open-label trial in CDI patients: clinical cure and sustained clinical cure; format: in vivo, human; settings: 10 CDI patients
# Protocol: Phase 2a of this trial was an open-label cohort of 10 subjects from study centers in the United States. In this cohort, 10 patients with diarrhea caused by mild/moderate C. difficile diagnosed via toxin EIA+ were treated with ibezapolstat 450 mg orally, twice daily for 10 days. All patients were followed for recurrence for 28±2 days. Stool was collected during course of therapy and at follow up. Patient fecal samples were evaluated for C. difficile culture and microbiome changes.
# The primary efficacy outcome measure was clinical cure at EOT defined as resolution of diarrhea in the 24-hour period preceding EOT and maintained for at least 48 hours post EOT. SCC was defined as clinical cure with no recurrence of CDI within 28 (±2) days after EOT.
# An intent-to-treat analysis of patients receiving at least one dose of ibezapolstat was conducted. Descriptive statistics were calculated for efficacy, safety/tolerability, and PK data generated using SAS version 9.4 software (SAS Institute, Inc Cary, NC, USA). Microbiome summary plots and data visualization was prepared using R software version 4.1.1 (R Core Team 2021, Vienna, Austria). (R Core Team (2013). R: A language and environment for statistical computing. R Foundation for Statistical Computing, Vienna, Austria.) Alpha diversity for each sample was assessed with the VeganR package version 2.4-2 using the Shannon Diversity Index and Inverse Simpson Index. Differences in alpha diversity (Shannon Diversity and Inverse Simpson Indexes) and bile acids at baseline compared to during or after therapy were compared using linear regression models. Proportional changes of bacterial taxa over the 10-day dosing interval were calculated using linear regression models for taxa with at least a one percent proportional change during the study time period. A p value <0.05 was considered significant.
# [3] = Phase 2a trial: safety assessments (adverse events); format: in vivo, human
# Protocol: Safety evaluations included AE assessment, physical examination, vital signs, clinical laboratory tests (chemistry, hematology, and urinalysis), and electrocardiography. Safety endpoints for all subjects were recorded including nature, frequency, and severity of AEs. AEs were assessed at each visit beginning from the time of enrollment and classified according to the Medical Dictionary for Regulatory Activities (MedDRA version 15.0). AE severity (mild, moderate, or severe) and causality (unrelated, possibly related, or probably related to the study medication) were assessed by the investigator at each site.
# C. difficile = experiment: Phase 2a trial: stool culture for C. difficile on CCFA; format: in vivo, Clostridioides difficile; settings: CDI patients
# Protocol: Stool samples were cultured for C. difficile growth on a selective cycloserine-cefoxitin fructose agar (CCFA) at 37° C. under anaerobic conditions for 48 hours. (Gonzales-Luna). Isolates were determined to be C. difficile based on growth and morphology and confirmed by PCR for C. difficile toxin and tpi genes. C. difficile was strain typed using a PCR-based ribotyping method as previously described. (Gonzales-Luna A J, Carlson T J, Dotson K M, et al. PCR ribotypes of Clostridioides difficile across Texas from 2011 to 2018 including emergence of ribotype 255. Emerg Microbes Infect 2020; 9(1): 341-7.) Minimum inhibitory concentrations (MICs) were determined for ibezapolstat by broth microdilution in 0.1% sodium taurocholate Brain Heart Infusion (BHI) media. (Begum K, Basseres E, Miranda J, et al. In Vitro Activity of Omadacycline, a New Tetracycline Analog, and Comparators against Clostridioides difficile. Antimicrob Agents Chemother 2020; 64(8).)
# C. difficile infection [4] = settings: literature (Gonzales-Luna); cited from earlier work
# [5] = ibezapolstat 450 mg orally twice daily 10 days
# [6] = CDI patients receiving ibezapolstat
compound,measurement,setting,value
"O=c1[nH]c(NCc2ccc(Cl)c(Cl)c2)nc2ncn(CCN3CCOCC3)c12 [Ibezapolstat, 2-((3,4-dichlorobenzyl)amino)-7-(2-morpholinoethyl)-1,7-dihydro-6H-purin-6-one]",stool samples with detectable concentration on day 38,[1],Three of 4
same,"plasma concentrations, upper limit",[1]; 450 mg twice daily,≤ 1000 ng/mL
same,"stool concentration, days 8-10 of therapy",[1]; 450 mg twice daily,"> 1,000 μg/g stool"
same,concentration at 2 h,"[1]; human, plasma, oral, 450 mg twice daily, read-out: plasma levels 2-hour post-dose",234 to 299 ng/mL
same,concentration at 4 h,"[1]; human, plasma, oral, 450 mg twice daily, read-out: plasma levels 4-hour postdose",373 to 578 ng/mL
same,concentration at 2 days after EOT,"[1]; human, stool, oral, 450 mg, read-out: stool concentration two days after EOT",535000 ± 748000 ng/g
same,concentration at 38 day,"[1]; human, stool, oral, 450 mg, samples with detectable concentration",136000 ± 161000 ng/g
same,concentration at 3 day of therapy,"[1]; human, stool, oral, 450 mg twice daily",416000 ± 494000 ng/g
same,no recurrences of infection,C. difficile infection [2]; followed 28±2 days,100%
same,clinical cure at day 12,C. difficile infection [2]; [5],100%
same,infection eliminated,C. difficile infection [2]; [5],100%
same,sustained clinical cure at day 38,C. difficile infection [2]; [5],100%
same,number of AEs reported,[3]; 10 CDI patients,Seven
same,serious AEs,[3]; 10 CDI patients,None
same,"adverse event profile, in words","[3]; 10 CDI patients, ibezapolstat 450 mg twice daily 10 days",acceptable adverse event profile
same,Adverse event Headache: Action taken with study medication,[3]; [6],No
same,Adverse event Headache: Frequency,[3]; [6],Intermittent
same,Adverse event Headache: Intensity,[3]; [6],Mild
same,Adverse event Headache: Outcome,[3]; [6],Resolved
same,Adverse event Headache: Relationship to study drug,[3]; [6],Unrelated
same,Adverse event Headache: Serious AE,[3]; [6],No
same,Adverse event Headache: Treatment required,[3]; [6],No
same,Adverse event Intertriginous Candidiasis: Action taken with study medication,[3]; [6],No
same,Adverse event Intertriginous Candidiasis: Frequency,[3]; [6],Continuous
same,Adverse event Intertriginous Candidiasis: Intensity,[3]; [6],Moderate
same,Adverse event Intertriginous Candidiasis: Outcome,[3]; [6],Resolved
same,Adverse event Intertriginous Candidiasis: Relationship to study drug,[3]; [6],Unrelated
same,Adverse event Intertriginous Candidiasis: Serious AE,[3]; [6],No
same,Adverse event Intertriginous Candidiasis: Treatment required,[3]; [6],Yes
same,Adverse event Migraine headache: Action taken with study medication,[3]; [6],No
same,Adverse event Migraine headache: Frequency,[3]; [6],Continuous
same,Adverse event Migraine headache: Intensity,[3]; [6],Severe
same,Adverse event Migraine headache: Outcome,[3]; [6],Resolved
same,Adverse event Migraine headache: Relationship to study drug,[3]; [6],Unrelated
same,Adverse event Migraine headache: Serious AE,[3]; [6],No
same,Adverse event Migraine headache: Treatment required,[3]; [6],Yes
same,Adverse event Nausea: Action taken with study medication,[3]; [6],No
same,Adverse event Nausea: Frequency,[3]; [6],Intermittent
same,Adverse event Nausea: Intensity,[3]; [6],Moderate
same,Adverse event Nausea: Outcome,[3]; [6],Resolved
same,Adverse event Nausea: Relationship to study drug,[3]; [6],Probably
same,Adverse event Nausea: Serious AE,[3]; [6],No
same,Adverse event Nausea: Treatment required,[3]; [6],No
same,Adverse event Vomiting: Action taken with study medication,[3]; [6],No
same,Adverse event Vomiting: Frequency,[3]; [6],Once
same,Adverse event Vomiting: Intensity,[3]; [6],Moderate
same,Adverse event Vomiting: Outcome,[3]; [6],Resolved
same,Adverse event Vomiting: Relationship to study drug,[3]; [6],Probably
same,Adverse event Vomiting: Serious AE,[3]; [6],No
same,Adverse event Vomiting: Treatment required,[3]; [6],Yes
same,patients with AEs,[3]; of the 10 patients,4
same,C. difficile growth from stool samples after baseline,"C. difficile; all sampling days other than baseline, 7-9 samples/day",did not grow C. difficile
same,Eradication of colonic C. difficile,C. difficile; ibezapolstat 450 mg twice daily,complete eradication of colonic C. difficile by day three
"CN[C@H](CC(C)C)C(=O)N[C@H]1C(=O)N[C@@H](CC(N)=O)C(=O)N[C@H]2C(=O)N[C@H]3C(=O)N[C@H](C(=O)N[C@H](C(=O)O)c4cc(O)cc(O)c4-c4cc3ccc4O)[C@H](O)c3ccc(c(Cl)c3)Oc3cc2cc(c3O[C@@H]2O[C@H](CO)[C@@H](O)[C@H](O)[C@H]2O[C@H]2C[C@](C)(N)[C@H](O)[C@H](C)O2)Oc2ccc(cc2Cl)[C@H]1O [Vancomycin, vancomycin]",patients having a recurring CDI after treatment is discontinued,C. difficile infection [4],20-25%
CCc1c(Cl)c(O)c(Cl)c(O)c1C(=O)O[C@H]1[C@H](O)[C@H](OC)[C@H](OC/C2=C\C=C\C[C@H](O)/C(C)=C/[C@H](CC)[C@@H](O[C@@H]3OC(C)(C)[C@@H](OC(=O)C(C)C)[C@H](O)[C@@H]3O)/C(C)=C/C(C)=C/C[C@@H]([C@@H](C)O)OC2=O)O[C@@H]1C [fidaxomicin],CDI recurrence rates lower than other treatments,C. difficile infection [4],approximately 50%
